# Non-standard residues stand in square brackets, D forms with d. Residues, ends and D or L forms follow the SMILES beside them. No end group written: not given here. *: point of attachment. X1 = NCCCCCCCCCCCCCCCCCC(=O)*; 12Ado = NCCCCCCCCCCCC(=O)O
# Biological target: T1, IL-6 (Homo sapiens, UniProt P05231)
# T1 construct: purchased Genzyme Corp
# Test: Activity for inhibition of binding of IL-6 to receptor by peptide (IL-6 receptor expression cells, FITC labeled anti-IL-6 antibody)
# Settings: 5 μg of the peptide, 50 ng of IL-6, 10^5 IL-6 receptor expression cells, 4° C for one hour
# Protocol: A human lymphocyte fraction was obtained from human peripheral blood with Ficoll-Paque (manufactured by Pharmacia-LKB). The fraction was reacted with a cultured supernatant of Epstein-Barr Virus producing cell strain B958 to transform the human lymphocytes to obtain IL-6 receptor expression cells.
# 1 mg of anti-human IL-6 antibody [Rabbit Anti-human Interleukin-6, manufactured by Genzyme Corp.] was dissolved in a 0.05M carbonate buffer solution (pH: 9.5) and to the resulting solution was added 10 μg of FITC [Fluorescein isothiocyanate, manufactured by Sigma Corp.]. The mixture was stirred at 4° C. overnight. The resulting solution was passed through PD-10 column (manufactured by Pharmacia-LKB) to obtain FITC labeled anti-IL-6 antibody as a firstly eluted fraction.
# 10^5 IL-6 receptor expression cells were suspended in 0.5 % BSA (bovine serum albumin, manufactured by Sigma Corp.)-PBS (a phosphate buffer solution containing 0.15 M sodium chloride, pH 7.4) and to the resulting suspension were added 50 ng of IL-6 (Human recombinant interleukin-6, manufactured by Genzyme Corp.) and 5 μg of the peptide obtained in any one of Examples 1 to 96. The suspension was allowed to stand at 4° C for one hour. Then, after washing the cells centrifugally with 0.5% BSA-PBS three times (1200 rpm, 5 min.), 1 μg of FITC labeled anti-IL-6 antibody was added and the mixture was allowed to stand at 4° C. for 30 minutes. After washing with 0.5% BSA-PBS three times, the intensity of fluorescence of the cells was determined. The binding inhibition activity of the peptide of each Example was evaluated, by taking the value obtained without addition of the peptide as a control and taking the value- obtained without addition of IL-6 as a blank, according to the following formula: [formula]
# T1 sequence (P05231 30-212): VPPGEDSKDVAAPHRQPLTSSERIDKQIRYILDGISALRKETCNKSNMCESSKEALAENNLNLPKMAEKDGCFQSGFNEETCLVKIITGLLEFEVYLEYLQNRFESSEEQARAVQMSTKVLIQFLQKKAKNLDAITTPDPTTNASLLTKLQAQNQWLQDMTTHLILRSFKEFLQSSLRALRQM
row,Compound,Binding inhibition activity (%)
1,CC(C)C[C@H](NC(=O)[C@H](CCC(=O)O)NC(=O)[C@H](Cc1ccccc1)NC(=O)[C@H](CCCNC(=N)N)NC(=O)[C@H](CC(C)C)NC(=O)[C@H](CCCNC(=N)N)NC(=O)[C@H](Cc1ccc(O)cc1)NC(=O)[C@H](Cc1ccccc1)NC(=O)[C@H](CO)NC(=O)[C@H](CO)NC(=O)[C@H](CC(N)=O)NC(=O)[C@H](Cc1c[nH]c2ccccc12)NC(=O)CCCCCCCCCCCN)C(=O)N[C@@H](CCCNC(=N)N)C(=O)N[C@@H](Cc1ccc(O)cc1)C(=O)N[C@@H](CCCNC(=N)N)C(=O)N[C@@H](C)C(=O)N[C@@H](CCC(=O)O)C(=O)N[C@@H](CCCNC(=N)N)C(=O)N[C@@H](CO)C(=O)N[C@@H](CCCCN)C(=O)N[C@@H](CCC(=O)O)C(=O)N[C@@H](CCC(=O)O)C(=O)N[C@@H](CCC(=O)O)C(=O)N[C@@H](CCC(=O)O)C(=O)N[C@@H](CCC(=O)O)C(=O)O [Example 35] (H-[12Ado]WNSSFYRLRFELRYRAERSKEEEEE-OH),60
2,CC(C)C[C@H](NC(=O)[C@H](CCC(=O)O)NC(=O)[C@H](Cc1ccccc1)NC(=O)[C@H](CCCNC(=N)N)NC(=O)[C@H](CC(C)C)NC(=O)[C@H](CCCNC(=N)N)NC(=O)[C@H](Cc1ccc(O)cc1)NC(=O)[C@H](Cc1ccccc1)NC(=O)[C@H](CO)NC(=O)[C@H](CO)NC(=O)[C@H](CC(N)=O)NC(=O)[C@H](Cc1c[nH]c2ccccc12)NC(=O)CCCCCCCCCCCCCCCCCN)C(=O)N[C@@H](CCCNC(=N)N)C(=O)N[C@@H](Cc1ccc(O)cc1)C(=O)N[C@@H](CCCNC(=N)N)C(=O)N[C@@H](C)C(=O)N[C@@H](CCC(=O)O)C(=O)N[C@@H](CCCNC(=N)N)C(=O)N[C@@H](CO)C(=O)N[C@@H](CCCCN)C(=O)NCC(=O)O [Example 36] (X1-WNSSFYRLRFELRYRAERSKG-OH),62
3,CC(C)C[C@H](NC(=O)[C@H](Cc1c[nH]c2ccccc12)NC(=O)[C@H](CCCNC(=N)N)NC(=O)[C@@H]1CCCN1C(=O)[C@H](CC(N)=O)NC(=O)CCCCCCCCCCCN)C(=O)N[C@@H](CO)C(=O)N[C@H](C(=O)N[C@H](C(=O)N[C@@H](Cc1c[nH]c2ccccc12)C(=O)N[C@@H](CCC(N)=O)C(=O)N[C@@H](CC(=O)O)C(=O)N1CCC[C@H]1C(=O)N[C@@H](Cc1c[nH]cn1)C(=O)N[C@@H](CO)C(=O)N[C@@H](CCC(=O)O)C(=O)N[C@@H](CCC(=O)O)C(=O)N[C@@H](CCC(=O)O)C(=O)N[C@@H](CCC(=O)O)C(=O)N[C@@H](CCC(=O)O)C(=O)O)[C@@H](C)O)C(C)C [Example 51] (H-[12Ado]NPRWLSVTWQDPHSEEEEE-OH),32
4,CC(C)C[C@H](NC(=O)[C@H](Cc1c[nH]c2ccccc12)NC(=O)[C@H](CCCNC(=N)N)NC(=O)[C@@H]1CCCN1C(=O)[C@H](CC(N)=O)NC(=O)CCCCCCCCCCCCCCCCCN)C(=O)N[C@@H](CO)C(=O)N[C@H](C(=O)N[C@H](C(=O)N[C@@H](Cc1c[nH]c2ccccc12)C(=O)N[C@@H](CCC(N)=O)C(=O)N[C@@H](CC(=O)O)C(=O)N1CCC[C@H]1C(=O)N[C@@H](Cc1c[nH]cn1)C(=O)N[C@@H](CO)C(=O)NCC(=O)O)[C@@H](C)O)C(C)C [Example 52] (X1-NPRWLSVTWQDPHSG-OH),35
5,CC(C)C[C@H](NC(=O)[C@H](CCC(=O)O)NC(=O)[C@H](Cc1ccccc1)NC(=O)[C@H](CCCNC(=N)N)NC(=O)[C@H](CC(C)C)NC(=O)[C@H](CCCNC(=N)N)NC(=O)[C@H](Cc1ccc(O)cc1)NC(=O)[C@H](Cc1ccccc1)NC(=O)[C@H](CO)NC(=O)[C@H](CO)NC(=O)[C@H](CC(N)=O)NC(=O)[C@H](Cc1c[nH]c2ccccc12)NC(=O)[C@H](CO)NC(=O)[C@H](Cc1c[nH]cn1)NC(=O)CCCCCCCCCCCN)C(=O)N[C@@H](CCCNC(=N)N)C(=O)N[C@@H](Cc1ccc(O)cc1)C(=O)N[C@@H](CCCNC(=N)N)C(=O)N[C@@H](C)C(=O)N[C@@H](CCC(=O)O)C(=O)N[C@@H](CCCNC(=N)N)C(=O)N[C@@H](CO)C(=O)N[C@@H](CCCCN)C(=O)N[C@@H](CCC(=O)O)C(=O)N[C@@H](CCC(=O)O)C(=O)N[C@@H](CCC(=O)O)C(=O)N[C@@H](CCC(=O)O)C(=O)N[C@@H](CCC(=O)O)C(=O)O [Example 59] (H-[12Ado]HSWNSSFYRLRFELRYRAERSKEEEEE-OH),60
6,CC(C)C[C@H](NC(=O)[C@H](CCC(=O)O)NC(=O)[C@H](Cc1ccccc1)NC(=O)[C@H](CCCNC(=N)N)NC(=O)[C@H](CC(C)C)NC(=O)[C@H](CCCNC(=N)N)NC(=O)[C@H](Cc1ccc(O)cc1)NC(=O)[C@H](Cc1ccccc1)NC(=O)[C@H](CO)NC(=O)[C@H](CO)NC(=O)[C@H](CC(N)=O)NC(=O)[C@H](Cc1c[nH]c2ccccc12)NC(=O)[C@H](CO)NC(=O)[C@H](Cc1c[nH]cn1)NC(=O)CCCCCCCCCCCCCCCCCN)C(=O)N[C@@H](CCCNC(=N)N)C(=O)N[C@@H](Cc1ccc(O)cc1)C(=O)N[C@@H](CCCNC(=N)N)C(=O)N[C@@H](C)C(=O)N[C@@H](CCC(=O)O)C(=O)N[C@@H](CCCNC(=N)N)C(=O)N[C@@H](CO)C(=O)N[C@@H](CCCCN)C(=O)NCC(=O)O [Example 60] (X1-HSWNSSFYRLRFELRYRAERSKG-OH),58
7,CC(C)C[C@H](NC(=O)[C@H](CCC(=O)O)NC(=O)[C@H](Cc1ccccc1)NC(=O)[C@H](CCCNC(=N)N)NC(=O)[C@H](CC(C)C)NC(=O)[C@H](CCCNC(=N)N)NC(=O)[C@H](Cc1ccc(O)cc1)NC(=O)[C@H](Cc1ccccc1)NC(=O)[C@H](CO)NC(=O)[C@H](CO)NC(=O)[C@H](CC(N)=O)NC(=O)[C@H](Cc1c[nH]c2ccccc12)NC(=O)[C@H](CO)NC(=O)[C@H](Cc1c[nH]cn1)NC(=O)[C@@H]1CCCN1C(=O)[C@H](CC(=O)O)NC(=O)CCCCCCCCCCCN)C(=O)N[C@@H](CCCNC(=N)N)C(=O)N[C@@H](Cc1ccc(O)cc1)C(=O)N[C@@H](CCCNC(=N)N)C(=O)N[C@@H](C)C(=O)N[C@@H](CCC(=O)O)C(=O)N[C@@H](CCCNC(=N)N)C(=O)N[C@@H](CO)C(=O)N[C@@H](CCCCN)C(=O)N[C@@H](CCC(=O)O)C(=O)N[C@@H](CCC(=O)O)C(=O)N[C@@H](CCC(=O)O)C(=O)N[C@@H](CCC(=O)O)C(=O)N[C@@H](CCC(=O)O)C(=O)O [Example 75] (H-[12Ado]DPHSWNSSFYRLRFELRYRAERSKEEEEE-OH),63
8,CC(C)C[C@H](NC(=O)[C@H](CCC(=O)O)NC(=O)[C@H](Cc1ccccc1)NC(=O)[C@H](CCCNC(=N)N)NC(=O)[C@H](CC(C)C)NC(=O)[C@H](CCCNC(=N)N)NC(=O)[C@H](Cc1ccc(O)cc1)NC(=O)[C@H](Cc1ccccc1)NC(=O)[C@H](CO)NC(=O)[C@H](CO)NC(=O)[C@H](CC(N)=O)NC(=O)[C@H](Cc1c[nH]c2ccccc12)NC(=O)[C@H](CO)NC(=O)[C@H](Cc1c[nH]cn1)NC(=O)[C@@H]1CCCN1C(=O)[C@H](CC(=O)O)NC(=O)[C@H](CCC(N)=O)NC(=O)[C@H](Cc1c[nH]c2ccccc12)NC(=O)CCCCCCCCCCCN)C(=O)N[C@@H](CCCNC(=N)N)C(=O)N[C@@H](Cc1ccc(O)cc1)C(=O)N[C@@H](CCCNC(=N)N)C(=O)N[C@@H](C)C(=O)N[C@@H](CCC(=O)O)C(=O)N[C@@H](CCCNC(=N)N)C(=O)N[C@@H](CO)C(=O)N[C@@H](CCCCN)C(=O)N[C@@H](CCC(=O)O)C(=O)N[C@@H](CCC(=O)O)C(=O)N[C@@H](CCC(=O)O)C(=O)N[C@@H](CCC(=O)O)C(=O)N[C@@H](CCC(=O)O)C(=O)O [Example 91] (H-[12Ado]WQDPHSWNSSFYRLRFELRYRAERSKEEEEE-OH),60
9,CC(C)C[C@H](NC(=O)[C@H](CCC(=O)O)NC(=O)[C@H](Cc1ccccc1)NC(=O)[C@H](CCCNC(=N)N)NC(=O)[C@H](CC(C)C)NC(=O)[C@H](CCCNC(=N)N)NC(=O)[C@H](Cc1ccc(O)cc1)NC(=O)[C@H](Cc1ccccc1)NC(=O)[C@H](CO)NC(=O)[C@H](CO)NC(=O)[C@H](CC(N)=O)NC(=O)[C@H](Cc1c[nH]c2ccccc12)NC(=O)[C@H](CO)NC(=O)[C@H](Cc1c[nH]cn1)NC(=O)[C@@H]1CCCN1C(=O)[C@H](CC(=O)O)NC(=O)[C@H](CCC(N)=O)NC(=O)[C@H](Cc1c[nH]c2ccccc12)NC(=O)CCCCCCCCCCCCCCCCCN)C(=O)N[C@@H](CCCNC(=N)N)C(=O)N[C@@H](Cc1ccc(O)cc1)C(=O)N[C@@H](CCCNC(=N)N)C(=O)N[C@@H](C)C(=O)N[C@@H](CCC(=O)O)C(=O)N[C@@H](CCCNC(=N)N)C(=O)N[C@@H](CO)C(=O)N[C@@H](CCCCN)C(=O)NCC(=O)O [Example 92] (X1-WQDPHSWNSSFYRLRFELRYRAERSKG-OH),62
10,DDDDDDPHSWNSSFYRLRFELRYRAERSKAAG-NH2 [Example 80],59
11,DDDDDGTVHLLVDVPPEEPQLSCFRKAAG-NH2 [Example 16],31
12,DDDDDHSWNSSFYRLRFELRYRAERSKAAG-NH2 [Example 64],55
13,DDDDDNPRWLSVTWQDPHSAAG-NH2 [Example 56],25
14,DDDDDPHSWNSSFYRLRFELRYRAERSKAAG-NH2 [Example 72],57
15,DDDDDQALTTNKDDDNILFRDSAAAG-NH2 [Example 32],44

# Source: patent US5171837A, “Peptide capable of binding interleukin 6 and an adsorbent comprising the peptide immobilized on a carrier” (Kuraray Co., Ltd., priority 1989, dated 1992)
